Laboratory results from patent US10590145B2, “Tetrahydrothiopyranopyrimidine derivatives as anti-HIV agent” (SHANDONG UNIVERSITY, priority 2016, dated 2020).
Like-named read-outs stand apart in the source and are kept apart here.

Assays:
Type in all cases: cell-based
[1] = tested on: HIV-1 Y188L mutant strain; assay: Anti-HIV-1 activity in MT-4 cells (MTT method), Y188L; conditions: for EC50: Human immunodeficiency virus 1, MT4, read-out: EC50 (nM) Y188L
Method: (§1) Selected compounds were screened for inhibitory activity against HIV-1 using MTT method as describe previously by Christophe. Pannecouque et al. Nat. Protoc. 3 (2008) 427-434, and Rudi Pauwels et al. J. Virol. Methods 20 (1988) 309-321. Briefly, MT-4 cells infected with HIV-1 can only survive for 5 to 7 days without any treatment, but when HIV-1 inhibitors were added, they can protect MT-4 cell from cytopathic. Serial solution of compounds was added to MT-4 cells after infected with HIV-1, MTT method was used to detect the survival rate after culture for 5 to 7 days. EC50 value was defined as compound concentration required to achieve 50% protection of MT-4 cells against HIV-1-induced cytopathic effect. In vitro anti-HIV-1 assay was supported by Rega Institute for Medical Research.
(§2) • (1) MT-4 cells infected with HIV-1 viral strains (IIIB, L100I, K103N, Y181C, Y188L, E138K, F227L/V106A, Y181C/K103N) were provided by Rega Institute for Medical Research, Katholieke Universiteit Leuven, Belgium. • (2) MTT and formazan: sigma Chemical Co. • (3) Preparation of compounds: Stock solutions (10×final concentration) of test compounds is diluted with double distilled water for 5 folds and 5 concentrations of one compound are prepared. • (4) Reference drugs: Nevirapine (NVP), Efavirenz (EFV), Etravirine (ETV), Rilpivirine (RPV) and Azidothymidine (AZT). • (5) Method (MTT method): Serial five-fold dilutions of test compounds were added to cultured MT-4 cells infected with HIV-1, after 5 to 7 days, MTT was added and cultured for a few hours. Medium was removed and lysate was added followed by formazan, OD value was determined in 690 nm and 540 nm by microplate reader, and EC50 value was calculated. 2. Method
(§3) The MTT method was described briefly as follows: 96-well plastic microtiter trays were filled with 100 μL of complete medium. Subsequently, serial of tested compounds was added (25 μL) to two series of triplicate wells so as to allow simultaneous evaluation of their effects on HIV- and mock infected cells. 50 μL of 1×10^4 cells/mL MT-4 cells were added. After cultured for 5 days at 37° C. in humidified atmosphere in the presence of 5% CO2, MTT was added and cultured for another 2 h, then medium was removed and 100 μL isopropanol solution was added to lyse the cells. Formazan crystals were added and vibrated platform shaker for 10 min to solubilize the formazan crystals. Absorbances at 690 nm and 540 nm were read by using spectrophotometrically. EC50 was defined as the concentration achieving 50% protection from the cytopathic effect of the virus in infected cells.
(§4) Selected compounds prepared as described above were assayed in MT-4 cells infected with wide-type IIIB, L100I, K103N, Y181C, Y188L, E138K or double mutant RES056 (Y181C/K103N) and F227L/V106A HIV-1 strains. Nevirapine, Efavirenz, Etravirine, Rilpivirine and Azidothymidine were selected as reference drugs. The results were listed below as EC50 value (nM)

[2] = tested on: wide-type HIV-1 (strain IIIB); assay: Anti-HIV-1 activity in MT-4 cells (MTT method), wild-type
Method: as §1, §2, §3, §4

[3] = tested on: HIV-1 E138K mutant strain; assay: Anti-HIV-1 activity in MT-4 cells (MTT method), E138K; conditions: Human immunodeficiency virus 1, MT4, read-out: EC50 (nM) E138K
Method: as §1, §2, §3, §4

[4] = tested on: HIV-1 F227L/V106A double mutant strain; assay: Anti-HIV-1 activity in MT-4 cells (MTT method), F227L/V106A; conditions: for EC50: Human immunodeficiency virus 1, MT4, read-out: EC50 (nM) F227L/V106A
Method: as §1, §2, §3, §4

[5] = tested on: HIV-1 double mutant RES056 (Y181C/K103N); assay: Anti-HIV-1 activity in MT-4 cells (MTT method), RES056; conditions: for EC50: Human immunodeficiency virus 1, MT4, read-out: EC50 (nM) Y181C/K103N
Method: as §1, §2, §3, §4

[6] = tested on: HIV-1 Y181C mutant strain; assay: Anti-HIV-1 activity in MT-4 cells (MTT method), Y181C; conditions: for EC50: Human immunodeficiency virus 1, MT4, read-out: EC50 (nM) Y181C
Method: as §1, §2, §3, §4

[7] = tested on: HIV-1 L100I mutant strain; assay: Anti-HIV-1 activity in MT-4 cells (MTT method), L100I; conditions: for EC50: Human immunodeficiency virus 1, MT4, read-out: EC50 (nM) L100I
Method: as §1, §2, §3, §4

[8] = tested on: HIV-1 K103N mutant strain; assay: Anti-HIV-1 activity in MT-4 cells (MTT method), K103N; conditions: for EC50: Human immunodeficiency virus 1, MT4, read-out: EC50 (nM) K103N
Method: as §1, §2, §3, §4

[9] = Human immunodeficiency virus 1, IIIB, MT4, read-out: EC50 (nM) wt

Row | SMILES | EC50 [1] [nM] | EC50 [2, 9] [nM] | EC50 [3] [nM] | EC50 [4] [nM] | EC50 [5] [nM] | EC50 [6] [nM] | EC50 [7] [nM] | EC50 [8] [nM] | EC50 ([2]; Human immunodeficiency virus 1, MT4, MT-4 cells, 50% protection against HIV-1-induced cytopathicity, wt (IIIB), read-out: EC50 (nM) wt) [nM] | Activity against Y188L compared with ETV ([1]; Y188L, relative to ETV) | fold more potent than ETV against F227L/V106A ([4]; F227L/V106A, relative to ETV) [fold] | fold more potent than ETV against Y181C/K103N ([5]; Y181C/K103N, relative to ETV) [fold] | fold more potent than ETV against Y181C ([6]; Y181C, relative to ETV) [fold] | fold more potent than ETV against L100I ([7]; L100I, relative to ETV) [fold] | Activity against K103N compared with ETV ([8]; K103N, relative to ETV)
1 | Cc1cc(C)c(Oc2nc(NC3CCN(Cc4ccc(S(N)(=O)=O)cc4)CC3)nc3c2SCCC3)c(C)c1 [IIA-1-2, 4-((4-((4-(mesityloxy)-7,8-dihydro-6H-thiopyrano[3,2-d]pyrimidin-2-yl)amino)piperidin-1-yl)methyl)benzenesulfonamide] | 10 to 100 | < 10 | 10 to 100 | 10 to 100 | > 100 | 10 to 100 | 10 to 100 | < 10 |  |  |  |  |  |  | 
2 | Cc1cc(C#N)cc(C)c1Oc1nc(NC2CCN(Cc3cccc(C#N)c3)CC2)nc2c1SCCC2 [IIA-1-6, 4-((2-((1-(3-cyanobenzyl)piperidin-4-yl)amino)-7,8-dihydro-6H-thiopyrano[3,2-d]pyrimidin-4-yl)oxy)-3,5-dimethylbenzonitrile] | 10 to 100 | < 10 | 10 to 100 | > 100 | > 100 | 10 to 100 | > 100 | 10 to 100 |  |  |  |  |  |  | 
3 | Cc1ccnc2c1NC(=O)c1cccnc1N2C1CC1 [NVP, Nevirapine, reference compound] | > 100 |  | > 100 | > 100 | > 100 | > 100 | > 100 | > 100 | > 100 |  |  |  |  |  | 
4 | Cc1cc(C#N)cc(C)c1Oc1nc(NC2CCN(Cc3cccc(S(N)(=O)=O)c3)CC2)nc2c1SCCC2 [IIA-1-4, 3-((4-((4-(4-cyano-2,6-dimethylphenoxy)-7,8-dihydro-6H-thiopyrano[3,2-d]pyrimidin-2-yl)amino)piperidin-1-yl)methyl)benzenesulfonamide] | 10 to 100 | < 10 | 10 to 100 | 10 to 100 | > 100 | 10 to 100 | > 100 | 10 to 100 |  |  |  |  |  |  | 
5 | Cc1cc(C#N)cc(C)c1Oc1nc(NC2CCN(Cc3ccc([N+](=O)[O-])cc3)CC2)nc2c1SCCC2 [IIA-1-12, 3,5-dimethyl-4-((2-((1-(4-nitrobenzyl)piperidin-4-yl)amino)-7,8-dihydro-6H-thiopyrano[3,2-d]pyrimidin-4-yl)oxy)benzonitrile] | 10 to 100 | < 10 | 10 to 100 | > 100 | > 100 | > 100 | > 100 | 10 to 100 |  |  |  |  |  |  | 
6 | Cc1cc(C#N)cc(C)c1Oc1nc(NC2CCN(Cc3ccc(N)cc3)CC2)nc2c1SCCC2 [IIA-1-13, 4-((2-((1-(4-aminobenzyl)piperidin-4-yl)amino)-7,8-dihydro-6H-thiopyrano[3,2-d]pyrimidin-4-yl)oxy)-3,5-dimethylbenzonitrile] | 10 to 100 | < 10 | 10 to 100 | > 100 | > 100 | 10 to 100 | 10 to 100 | < 10 |  |  |  |  |  |  | 
7 | Cc1cc(C#N)cc(C)c1Oc1nc(NC2CCN(Cc3ccc(C#N)cc3)CC2)nc2c1SCCC2 [IIA-1-5, 4-((2-((1-(4-cyanobenzyl)piperidin-4-yl)amino)-7,8-dihydro-6H-thiopyrano[3,2-d]pyrimidin-4-yl)oxy)-3,5-dimethylbenzonitrile] | 10 to 100 | < 10 | 10 to 100 | > 100 | > 100 | 10 to 100 | 10 to 100 | 10 to 100 |  |  |  |  |  |  | 
8 | Cc1cc(C#N)cc(C)c1Oc1nc(NC2CCN(Cc3ccccc3C#N)CC2)nc2c1SCCC2 [IIA-1-7, 4-((2-((1-(2-cyanobenzyl)piperidin-4-yl)amino)-7,8-dihydro-6H-thiopyrano[3,2-d]pyrimidin-4-yl)oxy)-3,5-dimethylbenzonitrile] | > 100 | < 10 | 10 to 100 | > 100 | > 100 | 10 to 100 | > 100 | 10 to 100 |  |  |  |  |  |  | 
9 | Cc1cc(C#N)cc(C)c1Oc1nc(NC2CCN(Cc3ccc(NS(C)(=O)=O)cc3)CC2)nc2c1SCCC2 [IIA-1-14, N-(4-((4-((4-(4-cyano-2,6-dimethylphenoxy)-7,8-dihydro-6H-thiopyrano[3,2-d]pyrimidin-2-yl)amino)piperidin-1-yl)methyl)phenyl) methanesulfonamide] | 10 to 100 | < 10 | < 10 | > 100 | > 100 | < 10 | 10 to 100 | < 10 |  |  |  |  |  |  | 
10 | Cc1cc(/C=C/C#N)cc(C)c1Oc1nc(NC2CCN(Cc3ccc(S(N)(=O)=O)cc3)CC2)nc2c1SCCC2 [IIA-1-3, (E)-4-((4-((4-(4-(2-cyanovinyl)-2,6-dimethylphenoxy)-7,8-dihydro-6H-thiopyrano[3,2-d]pyrimidin-2-yl)amino)piperidin-1-yl)methyl)benzenesulfonamide] | 10 to 100 | < 10 | 10 to 100 | < 10 | 10 to 100 | < 10 | < 10 | < 10 |  | comparable | 2 | 2 | 2 | 2 | comparable
11 | CCOC(=O)c1ccc(CN2CCC(Nc3nc4c(c(Oc5c(C)cc(C#N)cc5C)n3)SCCC4)CC2)cc1 [IIA-1-10, ethyl 4-((4-((4-(4-cyano-2,6-dimethylphenoxy)-7,8-dihydro-6H-thiopyrano[3,2-d]pyrimidin-2-yl)amino)piperidin-1-yl)methyl)benzoate] | > 100 | 10 to 100 | > 100 | > 100 | > 100 | > 100 | > 100 | 10 to 100 |  |  |  |  |  |  | 
12 | Cc1cc(C#N)cc(C)c1Oc1nc(NC2CCN(Cc3ccc(S(N)(=O)=O)cc3)CC2)nc2c1SCCC2 [IIA-1-1, 4-((4-((4-(4-cyano-2,6-dimethylphenoxy)-7,8-dihydro-6H-thiopyrano[3,2-d]pyrimidin-2-yl)amino)piperidin-1-yl)methyl)benzenesulfonamide] | < 10 | < 10 | < 10 | 10 to 100 | 10 to 100 | 10 to 100 | 10 to 100 | < 10 |  |  |  |  |  |  | 
13 | Cc1cc(C#N)cc(C)c1Oc1nc(NC2CCN(c3cccc(C#N)c3)CC2)nc2c1SCCC2 [IIC-1-1, 4-((2-((1-(3-cyanophenyl)piperidin-4-yl)amino)-7,8-dihydro-6H-thiopyrano[3,2-d]pyrimidin-4-yl)oxy)-3,5-dimethylbenzonitrile] | > 100 | 10 to 100 | > 100 | > 100 | > 100 | > 100 | > 100 | 10 to 100 |  |  |  |  |  |  | 
